For 81 molecules, RP-LC retention time results are on record in the METLIN SMRT retention time set (Domingo-Almenara et al. 2019).

Each structure is given as a SMILES string.

This data set is described as follows: gradient 5% acetonitrile 3 min, to 50% in 2 min, to 85% in 15 min, held 3 min, 100 µL/min. The conditions noted are these: column: Zorbax Extend-C18 2.1 x 50 mm; eluents: water / acetonitrile, 0.1% formic acid. Put shortly:
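Using water and acetonitrile that each contained 0.1% formic acid, mixtures of ~100 pure standards were separated at 100 μL/min on a Zorbax Extend-C18 column (2.1 × 50 mm, 1.8 μm). The HPLC fed a quadrupole time-of-flight mass spectrometer working in positive and negative ionization mode, with dead and dwell volumes of 40 μL and 900 μL. Data were acquired over 3 months. Retention time was read from computationally picked adduct peaks after manual inspection of each.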
As for `Cc1cc(C)cc(NC(=O)c2cc(C(C)C)n3nccc3n2)c1`, the RP-LC retention time is 1260 s.
`Cn1ncc(N2CCCC(CC(=O)O)C2)cc1=O` (stereo unspecified) came in with an RP-LC retention time of 613 s.
With `COCCN1CCC(N2CCCN(C(=O)C3COc4ccccc4O3)CC2)C1=O` (stereo unspecified) the figure was 560 s; with `COCCOC1CCC12CCN(C(=O)c1occc1C)CC2` (stereo unspecified), 779 s; with `O=C(Nc1cnc(N2CCCCCC2)nc1)C1CCC1`, 778 s.
As for `Cc1ccc(C)c(S(=O)(=O)N2CCCC2c2nc(-c3ccc(Cl)cc3)no2)c1` (stereo unspecified), the RP-LC retention time was found to be 1270 s.
With `Fc1ccc(-c2noc(-c3nc(-c4ccncc4)no3)n2)cc1F` the figure was 1040 s.
With `CCN(CC)C(=O)c1c(C)sc2ccn(CC)c(=O)c12` the figure was 720 s.
`CSc1n[nH]c(-c2cccs2)n1` yielded an RP-LC retention time of 714 s.
As for `CCCNC(=O)c1ncn2c1C(=O)N(CCC)C(C)(C(=O)NCc1ccc(C)cc1)C2` (stereo unspecified), the figure is 750 s; as for `CCOCCCNC(=O)N1CCCCCC1c1cccc(C)c1` (stereo unspecified), 954 s.
With `CN1c2cc(C(=O)NC3CCCCC3)ccc2C(=O)N2CCCCC21` (stereo unspecified) the figure was 824 s.
With `CCOc1ccc(OCC)c(NC(=O)C(=O)c2ccc[nH]2)c1` the figure was 1070 s; with `O=C(C1CCN(c2cnc(N3CCOCC3)nc2)CC1)N1CCCCC1`, 646 s.
With `COc1ccc(NC(=O)Cn2c(=O)n(-c3ccccc3)c3ncccc32)cc1OC`, the RP-LC retention time was 729 s.
With `COC(=O)c1cccc(Nc2c(-c3ccc([N+](=O)[O-])cc3)nc3cnccn23)c1` the figure was 839 s; with `Cc1sc(-c2cc(C(F)(F)F)[nH]n2)cc1S(=O)(=O)N1CC=C(c2ccccc2)CC1`, 1190 s.
`Cc1ccc(C)c(N2CCN(C(=O)C3CCN(S(=O)(=O)c4cn(C)cn4)CC3)CC2)c1` registered an RP-LC retention time of 832 s.
As for `COc1cccc(-c2ccc(=O)n(Cc3nc(-c4ccc(Cl)cc4)no3)n2)c1`, the figure is 1110 s; as for `COCCN1C(=O)Cc2ccccc2C1C(=O)NCc1ccc(Cl)cc1` (stereo unspecified), 898 s.
As for `CCc1cccc(N2C(=O)CN(S(C)(=O)=O)CC2(C)C(=O)NCc2ccc(F)cc2)c1` (stereo unspecified), the figure is 847 s; as for `CCCS(=O)(=O)N1CCc2c(c(-c3nncn3Cc3ccccc3)nn2C)C1`, 769 s; as for `O=C(Nc1cccc(Br)c1)N1CCN(Cc2nc3cccnc3n2-c2ccccc2)CC1`, 703 s.
Molecule `CCn1cc(CN2CCC(C(=O)NCC3CCCCC3)CC2)c2cc(OC)ccc21` gave an RP-LC retention time of 736 s.
Consider `O=C(Cc1ccc(NC(=O)c2cnc3ccccc3n2)cc1)NCC(F)(F)F`, for which the RP-LC retention time amounted to 756 s.
As for `Cc1ccc(NC(=O)c2c(O)c3cccnc3n(-c3ccc(F)cc3)c2=O)c(F)c1`, the figure is 1330 s.
As for `CCc1noc(COC2CCCN(C(=O)NCCc3ccccc3)C2)n1` (stereo unspecified), the figure is 796 s; as for `CC(C)NC(=O)N1CCCC(Cn2c(C3CC3)nc3cccnc32)C1` (stereo unspecified), 604 s.
`CCOc1ccccc1-c1csc(NC(=O)c2sc(COc3cc(C)ccc3C)nc2C)n1` yielded an RP-LC retention time of 1030 s.
With `CC1CCN(C(=O)c2ccc3c(c2)N(CC(=O)NC(C)C)C(=O)CO3)CC1` the figure was 684 s; with `CCCc1c(C(=O)O)nnn1-c1ccc(Cl)cc1`, 778 s; with `Cc1noc([C@@H]2CC(F)(F)CN2C(=O)c2cnco2)n1`, 667 s.
With `CCc1cc(OCC(=O)N2CCN(c3ccccn3)CC2)nc2c1c(C)nn2-c1ccc(C)cc1` the figure was 790 s.
With `O=C(NCCn1c(=O)n(Cc2ccc(F)cc2)c2cccnc21)c1cnccn1` the figure was 719 s; with `CCc1ccc(NC(=O)Cn2c(=O)cc(-c3nc(C4CC4)no3)c3ccccc32)cc1`, 1050 s; with `CCn1cc(C(=O)NC2CCN(c3ccc(=O)n(CCOc4ccccc4)n3)C2)cn1` (stereo unspecified), 692 s.
In the case of `COc1ccc(C(C)NC(=O)C2CCN(c3cncnc3N3CCCCC3)CC2)cc1` (stereo unspecified), the RP-LC retention time was 685 s.
With `Cc1cccc(N2CCN(C(=O)C3CC(=O)N(c4cccc(NC(=O)C(C)C)c4)C3)CC2)c1` (stereo unspecified) the figure was 803 s; with `O=C(NCCc1nnc2ccc(SCc3ccccn3)nn12)c1ccccc1`, 575 s; with `Cc1ccc2nc(NC(=O)C3CC(=O)N(c4n[nH]c5ccccc45)C3)sc2c1` (stereo unspecified), 787 s.
As for `CCc1ccc(S(=O)(=O)N2CCC3(CC2)NCCN=C3NCc2ccccc2)cc1`, the figure is 742 s.
The molecule `CCc1cccc(NC(=O)c2cc(C(C)C)n3nccc3n2)c1` returned an RP-LC retention time of 1240 s.
As to `COc1cccc(N2C(=O)CC(c3ccc(OC)c(OC)c3)CC2=O)c1`, the RP-LC retention time was found to be 789 s.
With `Cc1noc(-c2ccc(=O)n(Cc3ccccc3F)n2)n1` the figure was 794 s; with `CCCCn1cc(S(=O)(=O)NCc2ccc(F)cc2Cl)c2cccnc21`, 1030 s; with `Cc1nn(-c2ccc(Cl)cc2)c(C)c1S(=O)(=O)N1CCC(C(=O)NCc2cccs2)CC1`, 950 s.
With `CSc1ccc(NC(=O)CCl)cc1` the figure was 751 s.
With `COc1ccc(-c2nc3cnccn3c2Nc2ccc(C(=O)NCCN(C)C)cc2)cc1OC` the figure was 576 s.
`COCCN1C(=O)c2cccn2CC1CNC(=O)c1sc(C)nc1C` (stereo unspecified) showed an RP-LC retention time of 606 s.
`CCCN1C(=O)COc2ccc(-c3csc(NC(=O)c4ccc(C)cc4)n3)cc21` had an RP-LC retention time of 1080 s.
As for `COc1ccc(-c2nnc(-c3ccc(OC)c(S(=O)(=O)N4CCC(C)CC4)c3)o2)cc1OC`, the figure is 990 s.
With `CC(C)c1noc(-c2cc(=O)n(CC(=O)NCc3ccc(Cl)cc3)c3ccccc23)n1` the figure was 1020 s.
With `CCOc1nc2ccccc2nc1N1CCCC(C(=O)N2CCN(c3ccccc3OC)CC2)C1` (stereo unspecified) the figure was 1250 s; with `O=C(NCCc1cn2c(n1)SCC2)C(=O)Nc1ccc(F)cc1`, 542 s.
On to `COC(=O)C1=CN(c2ccc(OC)c(Cl)c2)c2ccccc2S1(=O)=O`, for which the RP-LC retention time was determined as 856 s.
With `CCOCCCNC(=O)C1CCN(c2nnc3c(Cl)cccn23)CC1` the figure was 610 s; with `CCNC(=O)N1CCC(c2noc(-c3ccccc3)n2)C1` (stereo unspecified), 724 s.
With `Cc1ccccc1-n1c(-c2ccc(Cl)cc2)cn2c3c(=O)n(C)c(=O)n(C)c3nc12` the figure was 1020 s.
`CCCCOc1ccc(-c2cc3c(N4CCN(CC)CC4)nccn3n2)cc1` displayed an RP-LC retention time of 775 s.
As for `Cc1ccc(NC(=O)CN2C(=O)NC3(CCCCC3)C2=O)cc1F`, the figure is 798 s; as for `O=C(Nc1cc(F)ccc1F)C1CCN(c2ccc(=O)n(-c3ccc(F)cc3)n2)CC1`, 874 s.
`N#Cc1ccc(C(=O)N2CCCCC2c2nncn2CC2CC2)cc1` (stereo unspecified) displayed an RP-LC retention time of 677 s.
For `Cc1ccccc1Cn1nc2n(c1=O)CCCCC2`, the RP-LC retention time turned out to be 772 s.
As for `CCOc1ccccc1-c1nc(-c2ccc3oc(CC)nc3c2)no1`, the figure is 1210 s.
As for `CC(=O)Nc1ccc(NC(=O)Cn2ccn3nc(-c4ccc(F)cc4)c(CO)c3c2=O)cc1`, the figure is 670 s; as for `CN(CC1CCOC1)C(=O)Nc1cccc(Cl)c1` (stereo unspecified), 738 s; as for `O=C(O)c1cc(-c2ccco2)n(C2CCS(=O)(=O)C2)n1` (stereo unspecified), 604 s.
With `O=C(CN1C(=O)CC(c2cccs2)=Nc2ccccc21)NCc1ccccc1` the figure was 876 s; with `CCOc1ccccc1C(=O)NCC1CCN(C(=O)c2ccccc2F)CC1`, 756 s; with `CSc1ccc(-c2nc3cnccn3c2Nc2cc(C)cc(C)c2)cc1`, 1070 s.
On to `Cn1nc(C(=O)N2CCOCC2)c2c1CCN(C(=O)CCC(=O)NC1CCCCCC1)C2`, for which the RP-LC retention time amounted to 652 s.
Regarding `CCC(C(=O)NC1CC1)n1nc(C)c2c(C)n(-c3ccc(C)cc3)nc2c1=O` (stereo unspecified), the RP-LC retention time was 802 s.
As for `CC(C)(Oc1ccc(Cl)cc1)C(=O)Nc1nnc(C2CC(=O)N(c3ccccc3)C2)o1` (stereo unspecified), the figure is 793 s.
With `O=C(NCc1n[nH]c(=O)c2ccccc12)C1CC(=O)N(c2ccccc2)C1` (stereo unspecified), the RP-LC retention time was 594 s.
The molecule `Cc1c(C(=O)NC2CCS(=O)(=O)C2)nnn1-c1ccccc1F` (stereo unspecified) yielded an RP-LC retention time of 656 s.
`O=C(Nc1nccs1)C1CCN(C(=O)c2cc(-c3ccccc3)on2)CC1` displayed an RP-LC retention time of 732 s.
As to `c1ccc2c(c1)CCN(Cc1nc(-c3ccc(N4CCCC4)nc3)no1)C2`, the RP-LC retention time amounted to 583 s.
As to `CC(=O)N1CCCSc2ccc(S(=O)(=O)N3CCCC3)cc21`, the RP-LC retention time stood at 774 s.
As for `CNC(=O)c1cc(C(=O)c2ccc3nc(Nc4cccc(C(F)(F)F)c4)[nH]c3c2)ccn1`, the figure is 747 s.
With `COCC(C)(O)CNC(=O)c1ccc2nsnc2c1` (stereo unspecified) the figure was 606 s; with `COC(=O)c1c(NCCc2ccccc2)c2cccc(Cl)c2[nH]c1=O`, 825 s.
